Experiments:
[1] = system: apomorphine-induced disruption of swimming in mice; experiment: Antagonism of apomorphine-induced disruption of swimming in mice; format: in vivo
Text: The antagonism of apomorphine-induced disruption of swimming in mice (Warawa, E. J. et al. (2001). Behavioral approach to nondyskinetic dopamine antagonists: identification of seroquel. J. Med. Chem., 44, 372-389) was used to assess test compounds. Apomorphine-treated mice fail to swim and remain in place, pawing the walls of the swimming chamber, or making abortive swims. Certain atypical antipsychotic compounds “normalize” the swimming behavior of such mice.
The animals (Swiss Webster, female, about 20 g; Charles River) were administered compounds of the invention (0.1 μg/kg-30 mg/kg ip) […] before they were dosed with apomorphine HCl at 1.25 mg/kg sc. Twenty seven minutes after test compound injection, and fifteen minutes after apomorphine injection, each mouse was placed into a circular swimming tank for 2 minutes and the number of “swims” were counted. The height of the tank is 15 cm and the diameter is 28 cm. A circular obstacle, 10.5 cm in diameter and 17 cm high was placed in the center of the tank creating a circular swimming channel 8.75 cm wide. The water level is 5.5 cm and the water was kept at room temperature (about 20° C.). Marks are placed on the floor and side of the tank 180 degrees apart. A “swim” was scored each time a mouse swims from one mark to the other and the median number of swims for all the mice was used as the score for that treatment.

[2] = biological target: T1, human D2S receptor (Homo sapiens, UniProt P14416); experiment: Adenylyl cyclase (HitHunter cAMP XS) assay in HEK 293 cells expressing human D2S; format: cell-based
T1 construct: host or cells: HEK 293 cells
T1 sequence (P14416 1-414 isoform P14416-2): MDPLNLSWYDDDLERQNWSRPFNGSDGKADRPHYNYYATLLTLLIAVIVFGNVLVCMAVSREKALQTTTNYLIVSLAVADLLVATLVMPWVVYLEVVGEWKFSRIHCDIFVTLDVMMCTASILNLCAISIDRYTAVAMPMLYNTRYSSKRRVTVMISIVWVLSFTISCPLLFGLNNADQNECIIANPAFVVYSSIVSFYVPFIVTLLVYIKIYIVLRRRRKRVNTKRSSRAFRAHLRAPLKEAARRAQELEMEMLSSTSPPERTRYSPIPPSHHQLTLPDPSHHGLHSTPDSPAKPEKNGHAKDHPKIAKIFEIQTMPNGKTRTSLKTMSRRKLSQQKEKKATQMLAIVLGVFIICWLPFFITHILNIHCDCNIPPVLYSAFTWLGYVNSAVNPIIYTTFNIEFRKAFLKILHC

[3] = system: catalepsy in mice; experiment: Catalepsy mouse model; format: in vivo; settings: up to 30 mg/kg, IP
Protocol: A catalepsy mouse model was used to investigate a potential side effect of antipsychotic agents.
The catalepsy methodology used herein has been adapted from Tada, M. et al. ((2004). Psychopharmacol., 176, 94-100) as well as Wang et al. ((2000). J. Neurosci., 20, 8305-8314).
The animals (Swiss Webster, female, about 20 g; Charles River) were administered compounds of the invention (1 μg/kg-30 mg/kg ip). Twenty seven minutes after test compound injection, the mice's forepaws were placed on a horizontal steel bar (diameter 0.2 cm), elevated 3-5 cm above the tabletop and the time taken for the animals to remove both paws was recorded for up to 2 min.

Compound	reversal of apomorphine-induced disruption of swimming ([1]; 3 and 10 mg/kg)	functional activity at human D2S receptor ([2]; HEK 293 cells, 27 μM forskolin (agonist) or plus 30 nM dopamine (antagonist))	IC50 ([2]; adenylyl cyclase assay, human D2S receptor, read-out: estimated IC50)	catalepsy [3]	antagonizing the apomorphine-induced disruption of swimming, potency vs clozapine ([1]; ip, apomorphine HCl 1.25 mg/kg sc)
O=C(O)C[C@H]1CN(C2=Nc3cc(Cl)ccc3Oc3ccccc32)CCN1 [Compound Q, (S,E)-2-(4-(8-chlorodibenzo[b,f][1,4]oxazepin-11-yl)piperazin-2-yl)acetic acid]	reversed				
CCOC(=O)C[C@H]1CN(C2=Nc3cc(Cl)ccc3Oc3ccccc32)CCN1 [Compound K, (S,E)-ethyl 2-(4-(8-chlorodibenzo[b,f][1,4]oxazepin-11-yl)piperazin-2-yl)acetate]		partial D2 receptor agonist and a D2 receptor antagonist	13 µM	did not cause catalepsy	more potent than clozapine

— patent publication US20120178738A1, “DIBENZO [B,F] [1,4]OXAZAPINE COMPOUNDS” (ARYX THERAPEUTICS, INC., priority 2007, published 2012)
